Source: article PMC5114336, “Enhanced anti-tumour activity of the combination of the novel MEK inhibitor WX-554 and the novel PI3K inhibitor WX-037” (Cancer Chemotherapy and Pharmacology, 2016)
pIC50: −log10 of the molar value. Values joined by “and” are separate entries in the source; they are usually repeats but may differ in a detail not shown here. Identical values can stand only once. “Also recorded” adds a separate entry of the source. Like-named read-outs stand apart in the source and are kept apart here.

Legend:
[1] = tested on: HCT116 cells; details: read-out: GI50 (potency), cited from earlier work
[2] = tested on: HT29 cells; details: read-out: GI50 (potency), cited from earlier work
[3] = set-up: method as in earlier work; details: dose escalation study in healthy volunteers; cited from earlier work
[4] = Pharmacokinetic study, plasma and tumour concentrations, HCT116 xenograft-bearing mice; type: in vivo
Protocol: (§1) Animal studies were all carried out using female athymic CD1 nude mice (Charles River, Kent, UK), implanted with HCT116 or HT29 xenografts (1 × 10^7 cells in 50 µl media injected subcutaneously into the right flank), maintained and handled in isolators under specific pathogen-free conditions.
(§2) Mice bearing HCT116 or HT29 human tumour xenografts were treated with 1 or 5 mg/kg WX-554, or 20 or 100 mg/kg WX-037, alone or in combination, and were bled by cardiac puncture under terminal anaesthesia at 6 or 24 h post-treatment (3 mice/time point). Blood was collected into heparinized tubes, and plasma was separated and stored at −20 °C until analysed. Tumours were removed, snap frozen in liquid nitrogen and stored at −80 °C prior to PK analyses. Samples were extracted with solid phase extraction (SPE) and analysed with high-performance liquid chromatography (HPLC) coupled with tandem mass spectrometry (MS/MS) by Wilex (Munich, Germany). The quantification limit for WX-554 was 1 ng/mL and within and between day variation was <15%. WinNonlin Software Version 4.0.1 (Pharsight Corporation, Peypin, France) was used for PK/PD modelling and non-compartmental analysis. Paired t tests were used to compare the different treatment groups, and differences with a p value ≤0.05 were considered statistically significant.

[5] = tested on: MEK1; details: stated in Introduction, method and reference not given; read-out: half maximal inhibitory concentration (IC50), MEK1; cited from earlier work
[6] = tested on: HT29 cells; test: Sulforhodamine B (SRB) growth inhibition assay with median effect analysis, HT29; type: cell-based, human
Protocol: (§3) Growth was then measured using the Sulforhodamine B (SRB) method and analysed as described previously. The GI50 concentration was calculated based on a standard point to point curve with 1000 segments using GraphPad Prism software (California, USA). The data were analysed by median effect analysis using CalcuSyn software (Biosoft, Cambridgeshire, UK), which calculates the combination index of multiple drugs by an algebraic estimation algorithm.

[7] = tested on: HCT116 cells; test: Sulforhodamine B (SRB) growth inhibition assay with median effect analysis, HCT116; type: cell-based, human; details: HCT116, single agent
Protocol: as §3

[8] = tested on: phosphorylation of ERK1/2, AKT, S6 and 4EBP1 in HT29 cells; test: Western blotting of PI3K/AKT and MAPK signal transduction, HT29; type: cell-based, human; details: HT29, 24 h, 1x or 10x GI50, Western blot
Protocol: (§4) Western blots were prepared, probed with phospho-4EBP1 (Thr37/46) (#2855), phospho-p44/42 MAPK (Thr202/Tyr204) (#4370), phospho-AKT (Ser473) (#4060) or phospho-S6 ribosomal protein (Ser235/236) (#4858) monoclonal antibodies obtained from Cell Signalling Technology (New England BioLabs (UK) Ltd, Hertfordshire, UK) and developed as described previously. Blots were then stripped (100 mM 2-mercaptoethanol, 2% (w/v) SDS and 62.5 mM Tris pH6.8 at 55 °C for 30 min) and re-probed with the respective total monoclonal antibody (4EBP1 (53H11) (#9644), p44/42 MAPK (ERK1/2) (#4695), AKT (pan) (C67E7) (#4691) or S6 ribosomal protein (5g10) (#2217)) obtained from Cell Signalling Technology (New England BioLabs (UK) Ltd, Hertfordshire, UK) and developed as described above.

[9] = tested on: HCT116 cells; test: Clonogenic cytotoxicity assay, HCT116
Source text: (§6) HCT116 and HT29 human colorectal cancer cells were obtained from the ATCC (American Type Culture Collection).
(§7) After growth for 10–14 days, colonies were fixed in methanol–acetic acid 3:1 (v/v) and stained with crystal violet (0.4% w/v). Colonies consisting of more than 50 cells were counted on an automated colony counter (Oxford Optronix, Oxford, UK). Two-tailed paired t tests were used to compare the different groups. Differences with a p < 0.05 were considered statistically significant.

[10] = Pharmacokinetic study, plasma and tumour concentrations, HT29 xenograft-bearing mice; type: in vivo
Protocol: as §1, §2

[11] = tested on: HCT116 human tumour xenografts; test: Anti-tumour activity in HCT116 xenograft-bearing mice; type: in vivo; details: 2 mg/kg WX-554 and/or 50 mg/kg WX-037 p.o. once daily for 14 days
Protocol: as §1
(§5) Mice bearing HCT116 human tumour xenografts were randomized into treatment groups and then treated by oral gavage with either the vehicle (10 ml/kg), 2 mg/kg WX-554, 50 mg/kg WX-037 or the combination of 2 mg/kg WX-554 and 50 mg/kg WX-037 once daily for 14 days. Tumour volume was monitored by calliper measurement using the equation a ^2 × b/2, where a is the smallest measurement and b the largest. Data are presented as median relative tumour volumes (RTV), where the tumour volume in each mouse on the initial day of treatment (day 0) is assigned an RTV value of 1. The time to RTV4 for each individual tumour was calculated based on a standard point to point curve with 1000 segments using GraphPad Prism software (CA, USA). Mann–Whitney U tests were used to compare the different groups, i.e., the control versus each treatment group, the single agents versus each other and each single agent versus their combination. Differences with a p value ≤0.05 were considered statistically significant.

[12] = set-up: method as in PMID 23587417, PMID 24434059; details: recent Phase I study; cited from earlier work
[13] = tested on: MEK2; details: stated in Introduction, method and reference not given; read-out: half maximal inhibitory concentration (IC50), MEK2; cited from earlier work
[14] = tested on: HT29 cells; test: Clonogenic cytotoxicity assay, HT29
Source text: as §6, §7

[15] = tested on: phosphorylation of ERK1/2, AKT, S6 and 4EBP1 in HCT116 cells; test: Western blotting of PI3K/AKT and MAPK signal transduction, HCT116; type: cell-based, human; details: HCT116, 24 h, 1x or 10x GI50, Western blot
Protocol: as §4

[16] = Tolerability (body weight) in the HCT116 xenograft efficacy study; type: in vivo; details: HCT116 xenograft mice, 2 mg/kg WX-554 and/or 50 mg/kg WX-037 p.o. once daily for 14 days
Protocol: as §5
Based on the results of the PK study, the efficacy of 50 mg/kg of the PI3K inhibitor WX-037 and 2 mg/kg of the MEK inhibitor WX-554 given orally, as single agents and in combination, was assessed in HCT116 human tumour xenograft-bearing mice (Fig. 5). […] In this study, mice were treated daily for 14 days and tumour volumes were measured three times a week.

[17] = 1 mg/kg WX-554 + 20 mg/kg WX-037, single p.o. dose
[18] = 1 mg/kg WX-554 + 100 mg/kg WX-037, single p.o. dose
[19] = 1 mg/kg WX-554 alone, single p.o. dose
[20] = 5 mg/kg WX-554 + 20 mg/kg WX-037, single p.o. dose
[21] = 5 mg/kg WX-554 + 100 mg/kg WX-037, single p.o. dose
[22] = 5 mg/kg WX-554 alone, single p.o. dose

O=C(NOC[C@H](O)CO)c1ccc(F)c(F)c1Nc1ccc(I)cc1F [PD 0325901]
GI50 ([1]; HCT116, using the same assay): 21 nM | GI50 ([2]; HT29, using the same assay): 6.5 nM

CS(=O)(=O)N1CCN(Cc2cc3nc(-c4cccc5[nH]ncc45)nc(N4CCOCC4)c3s2)CC1 [pictilisib, 2-(1H-Indazol-4-yl)-6-(4-methanesulfonyl-piperazin-1-ylmethyl)-4-morpholin-4-yl-thieno[3,2-d]pyrimidine]
GI50 ([1]; HCT116, using the same assay): 1080 nM | GI50 ([2]; HT29, using the same assay): 157 nM

NCC1CN(C(=O)c2c(Nc3ccc(I)cc3F)sc3ncccc23)C1 [WX-554]
safety and tolerability [3]: safe and tolerable | WX-554 Concentration ± SD, Plasma, 6 hours [4, 17]: 17 ± 9 ng/mL | WX-554 Concentration ± SD, Plasma, 24 hours [4, 17]: 6 ± 6 ng/mL | WX-554 Concentration ± SD, Tumour, 6 hours [4, 17]: 184 ± 62 ng/mL | WX-554 Concentration ± SD, Tumour, 24 hours [4, 17]: 141 ± 58 ng/mL | WX-554 Concentration ± SD, Plasma, 6 hours [4, 18]: 20 ± 10 ng/mL | WX-554 Concentration ± SD, Plasma, 24 hours [4, 18]: 10 ± 7 ng/mL | WX-554 Concentration ± SD, Tumour, 6 hours [4, 18]: 319 ± 139 ng/mL | WX-554 Concentration ± SD, Tumour, 24 hours [4, 18]: 464 ± 263 ng/mL | WX-554 Concentration ± SD, Plasma, 6 hours [4, 19]: 19 ± 5 ng/mL | WX-554 Concentration ± SD, Plasma, 24 hours [4, 19]: 2 ± 1 ng/mL | WX-554 Concentration ± SD, Tumour, 6 hours [4, 19]: 478 ± 97 ng/mL | WX-554 Concentration ± SD, Tumour, 24 hours [4, 19]: 309 ± 30 ng/mL | WX-554 Concentration ± SD, Plasma, 6 hours [4, 20]: 74 ± 27 ng/mL | WX-554 Concentration ± SD, Plasma, 24 hours [4, 20]: 28 ± 7 ng/mL | WX-554 Concentration ± SD, Tumour, 6 hours [4, 20]: 673 ± 453 ng/mL | WX-554 Concentration ± SD, Tumour, 24 hours [4, 20]: 1240 ± 282 ng/mL | WX-554 Concentration ± SD, Plasma, 6 hours [4, 21]: 98 ± 18 ng/mL | WX-554 Concentration ± SD, Plasma, 24 hours [4, 21]: 68 ± 19 ng/mL | WX-554 Concentration ± SD, Tumour, 6 hours [4, 21]: 804 ± 353 ng/mL | WX-554 Concentration ± SD, Tumour, 24 hours [4, 21]: 1583 ± 369 ng/mL | WX-554 Concentration ± SD, Plasma, 6 hours [4, 22]: 130 ± 37 ng/mL | WX-554 Concentration ± SD, Plasma, 24 hours [4, 22]: 11 ± 2 ng/mL | WX-554 Concentration ± SD, Tumour, 6 hours [4, 22]: 1724 ± 442 ng/mL | WX-554 Concentration ± SD, Tumour, 24 hours [4, 22]: 360 ± 223 ng/mL | pIC50 [5]: 8.33 | fold difference in sensitivity, HT29 more sensitive than HCT116 ([6]; GI50 HCT116 versus GI50 HT29): 9 fold | GI50 ([6]; HT29, single agent, 72-h exposure, SRB, read-out: GI50 (half maximal growth inhibitory concentration)): 4.3 nM and 4 nM | in vitro GI50 value ([6]; HT29, single agent, determined in Supplementary Figure 1): 0.002 µg/mL | GI50 ([7]; 72-h exposure, SRB, read-out: GI50 (half maximal growth inhibitory concentration)): 38 nM | in vitro GI50 value ([7]; determined in Supplementary Figure 1): 0.018 µg/mL | reduction of ERK1/2 phosphorylation [8]: at 10 times the GI50 concentration in the HT29 cell line | LC50 fold higher than the corresponding GI50 ([9]; HCT116): approximately 16 fold | cell kill (cytotoxicity, cell death) ([9]; HCT116, single agent 10 µM, 72 h, clonogenic assay): 67% | CC50 ([9]; read-out: mean lethal concentration (LC50), HCT116, 72-h exposure, clonogenic assay): 600 nM | WX-554 Concentration ± SD, Plasma, 6 hours [10, 17]: 101 ± 39 ng/mL | WX-554 Concentration ± SD, Plasma, 24 hours [10, 17]: 5 ± 3 ng/mL | WX-554 Concentration ± SD, Tumour, 6 hours [10, 17]: 1180 ± 597 ng/mL | WX-554 Concentration ± SD, Tumour, 24 hours [10, 17]: 447 ± 80 ng/mL | WX-554 Concentration ± SD, Plasma, 6 hours [10, 18]: 19 ± 14 ng/mL | WX-554 Concentration ± SD, Plasma, 24 hours [10, 18]: 13 ± 7 ng/mL | WX-554 Concentration ± SD, Tumour, 6 hours [10, 18]: 159 ± 102 ng/mL | WX-554 Concentration ± SD, Tumour, 24 hours [10, 18]: 407 ± 66 ng/mL | WX-554 Concentration ± SD, Plasma, 6 hours [10, 19]: 21 ± 1 ng/mL | WX-554 Concentration ± SD, Plasma, 24 hours [10, 19]: 3 ± 1 ng/mL | WX-554 Concentration ± SD, Tumour, 6 hours [10, 19]: 510 ± 40 ng/mL | WX-554 Concentration ± SD, Tumour, 24 hours [10, 19]: 419 ± 134 ng/mL | WX-554 Concentration ± SD, Plasma, 6 hours [10, 20]: 81 ± 26 ng/mL | WX-554 Concentration ± SD, Plasma, 24 hours [10, 20]: 52 ± 58 ng/mL | WX-554 Concentration ± SD, Tumour, 6 hours [10, 20]: 1143 ± 416 ng/mL | WX-554 Concentration ± SD, Tumour, 24 hours [10, 20]: 2493 ± 979 ng/mL | WX-554 Concentration ± SD, Plasma, 6 hours [10, 21]: 47 ± 33 ng/mL | WX-554 Concentration ± SD, Plasma, 24 hours [10, 21]: 49 ± 10 ng/mL | WX-554 Concentration ± SD, Tumour, 6 hours [10, 21]: 446 ± 239 ng/mL | WX-554 Concentration ± SD, Tumour, 24 hours [10, 21]: 2423 ± 584 ng/mL | WX-554 Concentration ± SD, Plasma, 6 hours [10, 22]: 118 ± 25 ng/mL | WX-554 Concentration ± SD, Plasma, 24 hours [10, 22]: 13 ± 3 ng/mL | WX-554 Concentration ± SD, Tumour, 6 hours [10, 22]: 2748 ± 378 ng/mL | WX-554 Concentration ± SD, Tumour, 24 hours [10, 22]: 1916 ± 207 ng/mL | GI50 ([1]; HCT116, unpublished Wilex studies): 29 nM | tumour growth compared to vehicle-treated control tumours [11]: caused tumour growth delay; also recorded: induced tumour growth delay | bioavailability [12]: very good bioavailability | pIC50 [13]: 7.96 | LC50 fold higher than the corresponding GI50 ([14]; HT29): ~372 fold | cell kill (cytotoxicity, cell death) ([14]; HT29, single agent 10 µM, 72 h, clonogenic assay): 75% | CC50 ([14]; read-out: mean lethal concentration (LC50), HT29, 72-h exposure, clonogenic assay): 1600 nM | reduction of ERK1/2 phosphorylation [15]: reduced ERK1/2 phosphorylation at 1 and 10 times the GI50 concentration | tolerability / toxicity [16]: non-toxic | GI50 ([2]; HT29, unpublished Wilex studies): 7.2 nM
